Assay [1] deals with T1, Pancreatic triacylglycerol lipase (Homo sapiens, UniProt P16233).
T1 sequence (P16233 whole entry): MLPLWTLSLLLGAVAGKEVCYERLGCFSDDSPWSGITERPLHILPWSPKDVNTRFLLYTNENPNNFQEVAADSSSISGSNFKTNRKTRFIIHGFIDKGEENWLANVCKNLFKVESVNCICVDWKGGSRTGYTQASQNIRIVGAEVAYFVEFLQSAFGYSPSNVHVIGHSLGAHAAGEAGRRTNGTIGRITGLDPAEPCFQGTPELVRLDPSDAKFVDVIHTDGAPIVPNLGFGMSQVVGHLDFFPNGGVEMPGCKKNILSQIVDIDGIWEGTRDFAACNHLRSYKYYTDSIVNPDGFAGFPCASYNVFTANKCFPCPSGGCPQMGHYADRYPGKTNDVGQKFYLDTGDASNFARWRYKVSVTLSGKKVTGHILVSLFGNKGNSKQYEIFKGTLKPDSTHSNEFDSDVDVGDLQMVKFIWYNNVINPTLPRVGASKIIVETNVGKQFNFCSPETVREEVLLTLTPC
Description: Tested for hydrolysis with 0.2 ug/mL of PPL (porcine pancreatic lipase) at a compound dose of 0.2 g. The following applies: target entry is the homologue from another species. On the set-up: species or system Sus scrofa.

Assay [2] addresses T1, Pancreatic triacylglycerol lipase. Nature of the assay: Tested for hydrolysis with 0.2 ug/mL of PPL (porcine pancreatic lipase), 1.5 ug/mL of colipase and 4 mM sodium taurodeoxycholatet (NaTDC) at a compound concentration of 0.2 g. The following applies: target entry is the homologue from another species. The arrangement: species or system Sus scrofa.
Assay [3] deals with T2, Pancreatic triacylglycerol lipase (Homo sapiens) (UniProt P16233).
T2 sequence (whole entry): T1 sequence (P16233 whole entry)
As to conditions: Sus scrofa.

Assay [4] addresses T2, Pancreatic triacylglycerol lipase (Homo sapiens). As to conditions: Sus scrofa. This is another data set of the same source.
Assay [5] shares this target. Description: Tested for hydrolysis with 80 ug/mL of PPL (porcine pancreatic lipase) at the compound dose of 0.1 g. As to conditions: Sus scrofa; target entry is the homologue from another species.
The target is the same in assay [6]. Nature of the assay: Tested for hydrolysis with 0.2 ug/mL of PPL (porcine pancreatic lipase) at the compound dose of 0.2 g. As to conditions: Sus scrofa; target entry is the homologue from another species.
The target is the same in assay [7]. Nature of the assay: Tested for hydrolysis with 0.5 ug/mL of PPL (porcine pancreatic lipase), 1.5 ug/mL of colipase and 4 mM of sodium taurodeoxycholatet (NaTDC) at the compound dose of 0.2 g. As to conditions: Sus scrofa; target entry is the homologue from another species.
For assay [8] the target is unchanged. Nature of the assay: Tested for hydrolysis with 200 ug/mL of PPL (porcine pancreatic lipase) and sodium taurodeoxycholatet (NaTDC) at the compound dose of 0.2 g. As to conditions: Sus scrofa; target entry is the homologue from another species.
The target is the same in assay [9]. Description: Tested for hydrolysis with 20 ug/mL of PPL (porcine pancreatic lipase) and sodium taurodeoxycholatet (NaTDC) at the compound dose of 0.2 g. As to conditions: Sus scrofa; target entry is the homologue from another species.
The target is the same in assay [10]. Nature of the assay: Tested for hydrolysis with 1.0 ug/mL of PPL (porcine pancreatic lipase) at the compound dose of 0.2 g. As to conditions: Sus scrofa; target entry is the homologue from another species.
For assay [11] the target is unchanged. Description: Tested for hydrolysis with 1.0 ug/mL of PPL (porcine pancreatic lipase), 2.2 ug/mL of colipase and 4 mM of sodium taurodeoxycholatet (NaTDC) at the compound dose of 0.2 g. The following applies: Sus scrofa; target entry is the homologue from another species.

For the compound `CCCC(=O)OCC(COC(=O)CCC)OC(=O)CCC` [TRIBUTYRIN], the catalytic constant (kcat) (in general, the number of substrate molecules converted per active site and unit of time at saturation) is 1100 s⁻¹ in assay [1] and below 1 s⁻¹ in assay [2]. The k cat stood at 4900 s⁻¹ in [3] and 5100 s⁻¹ in [4].

As for `CC(=O)O[C@@H]1C[C@@H]2C=CC[C@@H]21`, the k cat in [5] was below 9 s⁻¹.

As for `CCCC(=O)O[C@@H]1C[C@@H]2C=CC[C@@H]21`, the k cat in [6] stood at 3870 s⁻¹; in assay [7], 3560 s⁻¹.

For `CCCC(=O)O[C@H]1C[C@@H]2C=CC[C@H]12`, the k cat in assay [8] is below 5 s⁻¹; in assay [9], below 4 s⁻¹.

For the compound `CCCC(=O)O[C@@H]1C[C@@H]2C=CC[C@@H]21.CCCC(=O)O[C@@H]1C[C@H]2C=CC[C@@H]21`, the results for the k cat in [10] and in assay [11] were 420 s⁻¹ and 400 s⁻¹, respectively.

The values above are taken from ChEMBL document CHEMBL1127193, “High-purity porcine pancreatic lipase: novel effects in catalyzing hydrolysis of esters derived from bicyclo[3.2.0]hept-2-EN-6-OLS” (Bioorg Med Chem Lett, 1993).
